Earlier results, collected in patent US20050142185A1, “Softgel formulations of bisphosphonates bone resorption inhibitors” (priority 2003, published 2005).

Key:
[1] = taken either concurrently with or 2 hours after breakfast
[2] = marketed tablet not taken with enough water, or patient not upright for about one-half hour after taking

Structure (SMILES): NCCCC(O)(P(=O)(O)O)P(=O)(O)O [alendronate, 4-amino-1-hydroxybutylidene-1,1-biphosphonic acid]
- impairment of availability [1]: > 85%
- side effects reported [2]: esophageal irritation and erosion
